Consider 1 substance from paper PMC12313019, “Fibrotic lung ECM upregulates SDC4/integrin-αvβ1 interaction and the interfering peptide SDC4_87-131 and its derivative peptides alleviate pulmonary fibrosis” (Regenerative Biomaterials, 2025).

Series [1] relates to SDC4/integrin-αv. Kind of series: Duolink-PLA, SDC4/integrin-αv extracellular interaction in fibroblast. Format: cell-based, mouse. Particulars: SDC4_87-131 100 nM; with Anti-SDC4(93-121), n=5. How it is done:
(§1) Decellularized lung ECM (dECM) was prepared as described in previous study. 2 × 10^5 cells/mL NIH3T3 cells (mouse […], purchased from the Stem Cell Bank of the Chinese Academy of Sciences, Shanghai, China) were seeded on the dECM slices attached to the bottom of the culture dish and cultured in DMEM medium containing 0.5% fetal bovine serum (Gibco, Waltham, MA, USA) at 37°C and 5% CO2.
(§2) Cells or tissue slices were attached to slides, fixed and permeabilized and blocked with Duolink^TM (Merck, MO, USA) blocking buffer. Antibodies against the extracellular domain of SDC4 (5G9, mouse IgG, SCBT #sc-12766), integrin-αv (rabbit IgG, CST #4711) and integrin-β1 (rabbit IgG, CST #34971) were diluted and added to the samples and incubated overnight at 4°C. After washing, PLUS and MINUS (proximity ligation assay, PLA) probes were added to the samples and incubated at 37°C for 1 h. After washing, the samples were sequentially incubated with PLUS and MINUS (PLA) probes, ligation buffer and amplification buffer containing polymerase. Finally, the samples were mounted with in situ mounting medium containing DAPI. Images were acquired using a Leica SP5 confocal microscope (Leica Biosystems, Germany) and quantitative analysis was performed using ImageJ software.

For series [2], the system named is integrin-αvβ1, FAK/AKT and PKCα/NF-κB pathways in NIH3T3 cells. As to the kind of experiment: Western blot of signaling proteins in dECM-stimulated fibroblast. Particulars: n=3. Format: cell-based, mouse. How it is done:
as §1
20 mg of lung tissue was extracted with RIPA lysis buffer (Roche International Ltd., Bermuda, USA), and the protein concentration was determined using a BCA protein detection kit (Roche). Protein samples were separated by 10% sodium dodecyl sulfate polyacrylamide gel (SDS-PAGE) electrophoresis and transferred to a PVDF membrane. After blocking, the PVDF membrane was incubated with primary antibodies for α-SMA, Integrin-αV, SDC4, Integrin-β1, p-Smad3, FAK, and p-FAK (CST, #19245, #4711, #12236S, #34971, #9520S, #3285S, and #3284S) at 4°C overnight, followed by incubation with secondary antibodies (CST, #7074P2), development with ECL reagent (SAB), and acquisition of images with a chemiluminescence imaging system (ChemiScope 5600).

A further series addresses integrin-αvβ1 (Homo sapiens, UniProt P05556+P06756). As to the kind of experiment: SPR binding of peptides to integrin-αvβ1 (Biacore 8K+). Particulars: 25°C, Figure 7E. How it is done: The Biacore 8K+ system (GE Healthcare) was used at 25°C. The ligand integrin-αvβ1 (1 mg/mL) was routinely coupled to the sensor chip (Series S Sensor Chip CM5, Cytiva, #100530). The peptide samples SDC4_87-131 and CS-1, -2, -3, -4, -8, -9, -10 were dissolved in PBS, and then, the samples with different concentration gradients (0.78, 1.56, 3.125, 6.25, 12.5, 25, 50, 100 μM) were injected, respectively, under the driving of buffer PBST (PBS + 0.05% Tween-20). The signal intensity was quantified in relative units (RU), and binding affinity was determined using the dissociation constant (Kd). After the experiment, 10 mM glycine-HCl buffer solution (pH = 2) was selected to regenerate the chip surface.

For another series, the system named is pan-integrins. Kind of series: FN-coating cell adhesion assay (pan-integrins activation). Format: cell-based, mouse. The note with it: 100 nM, n=5. How it is done:
10 μg/mL Fibronectin (Merck, #10838039001) was dissolved in serum-free DMEM medium and dropped into a 96-well plate, 50 μL per well. The plate was incubated at 4 °C overnight. After blocking with 3% bovine serum albumin at room temperature for 30 min, 4×10^4 cells were inoculated into each well. After incubation for 30 min, the cells were washed, fixed, and stained with crystal violet (5 mg/mL) for 30 min. Then after the crystal violet was dissolved, it was detected using an ELISA reader at 595 nm.

Series [3] relates to SDC4/integrin-αv. Kind of series: Duolink-PLA, SDC4/integrin-αv interaction in BLM lung tissue. Type of series: in vivo, mouse. The note with it: SDC4_87-131 1 mg/kg ITD q3d; C8 10 mg/kg IP qd; Anti-SDC4(93-121) 8 mg/kg ITD day 3 and 10; n=5. How it is done:
After the mice were anesthetized (1% sodium pentobarbital 50 mg/kg was injected intraperitoneally), 150 μL of bleomycin (BLM, 5 mg/mL, BIO-000001) was inhaled into the lungs of the mice by tracheal inhalation instillation. One day later, the mice were randomly divided into model and drug treatment groups, and the mice in the control group were only subjected to saline inhalation.
as §2

Another series deals with fibroblast. As to the kind of experiment: CCK-8 fibroblast viability/toxicity. Format: cell-based, mouse. Particulars: CCK-8, 48 h, 10–1000 nM. The method, then: as §1
(A) Schematic diagram of SDC487-131; (B) Effect of SDC487-131 and GRGDNP on fibroblast proliferation at 48 h was determined by CCK-8 method (n=3); (C) Effect of different concentration of SDC487-131 on fibroblast activation induced by d-PF for 48 h (n=5). Note: **p < 0.01 vs. PBS in d-Nor group; #p < 0.05 vs. PBS in d-PF group. d-Nor: dECM-Nor; d-PF: dECM-PF.
Figure S14. The viability of fibroblast after treated with peptides for 48 h was detected by CCK-8 assay.

The next series relates to SDC4/integrin-β1. As to the kind of experiment: Duolink-PLA, SDC4/integrin-β1 extracellular interaction in fibroblast. Format: cell-based, mouse. The note with it: SDC4_87-131 100 nM; with Anti-SDC4(93-121), n=5. How it is done: as §1, §2
The subject of the next series is NIH3T3 cells. Kind of series: RT-PCR of fibroblast activation markers, TGF-β1 and inflammatory factors in dECM-stimulated fibroblast. Type of series: cell-based, mouse. The method, then: as §1
Total RNA was extracted from cells or lung tissue (10 mg) using Trizol reagent, and mRNA was reverse transcribed into cDNA using HiScript® II QRT SuperMix for qPCR (Vazyme, #R223-01). Real-time fluorescence quantitative PCR (RT-PCR) was performed using Hieff® qPCR SYB Green Master Mix (YEASEN, #11201ES08) to obtain the Ct value. The 2^−ΔΔCt method was used to obtain the relative expression level of mRNA in each group. Primers (Table 1) were purchased from Sangon Biotech.

integrin-αvβ1, sequence (P06756 31-992 limits assumed): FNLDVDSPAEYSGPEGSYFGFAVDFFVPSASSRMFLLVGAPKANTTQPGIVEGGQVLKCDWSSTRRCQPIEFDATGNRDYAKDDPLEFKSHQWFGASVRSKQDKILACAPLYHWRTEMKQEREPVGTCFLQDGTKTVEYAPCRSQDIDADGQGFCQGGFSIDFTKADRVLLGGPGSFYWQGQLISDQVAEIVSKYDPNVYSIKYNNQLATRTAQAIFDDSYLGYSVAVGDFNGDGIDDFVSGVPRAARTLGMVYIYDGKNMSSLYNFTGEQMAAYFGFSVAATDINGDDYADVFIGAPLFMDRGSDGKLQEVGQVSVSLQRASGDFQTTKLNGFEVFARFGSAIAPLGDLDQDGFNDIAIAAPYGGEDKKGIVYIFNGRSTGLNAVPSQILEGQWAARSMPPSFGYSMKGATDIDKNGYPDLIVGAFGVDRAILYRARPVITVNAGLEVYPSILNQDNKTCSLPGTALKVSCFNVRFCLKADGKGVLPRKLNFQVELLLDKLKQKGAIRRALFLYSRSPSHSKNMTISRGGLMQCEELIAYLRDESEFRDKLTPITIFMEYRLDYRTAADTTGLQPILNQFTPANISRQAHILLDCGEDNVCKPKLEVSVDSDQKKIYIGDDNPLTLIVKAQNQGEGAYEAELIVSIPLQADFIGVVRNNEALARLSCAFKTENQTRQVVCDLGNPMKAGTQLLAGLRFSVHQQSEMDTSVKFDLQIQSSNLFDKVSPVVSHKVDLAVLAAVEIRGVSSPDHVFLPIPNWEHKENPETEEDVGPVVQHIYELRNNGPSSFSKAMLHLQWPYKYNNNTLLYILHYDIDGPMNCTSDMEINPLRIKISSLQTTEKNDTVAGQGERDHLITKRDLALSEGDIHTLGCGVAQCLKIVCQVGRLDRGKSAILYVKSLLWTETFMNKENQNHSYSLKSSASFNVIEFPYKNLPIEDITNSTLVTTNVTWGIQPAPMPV
integrin-αvβ1, sequence (P05556 21-728 partner limits assumed): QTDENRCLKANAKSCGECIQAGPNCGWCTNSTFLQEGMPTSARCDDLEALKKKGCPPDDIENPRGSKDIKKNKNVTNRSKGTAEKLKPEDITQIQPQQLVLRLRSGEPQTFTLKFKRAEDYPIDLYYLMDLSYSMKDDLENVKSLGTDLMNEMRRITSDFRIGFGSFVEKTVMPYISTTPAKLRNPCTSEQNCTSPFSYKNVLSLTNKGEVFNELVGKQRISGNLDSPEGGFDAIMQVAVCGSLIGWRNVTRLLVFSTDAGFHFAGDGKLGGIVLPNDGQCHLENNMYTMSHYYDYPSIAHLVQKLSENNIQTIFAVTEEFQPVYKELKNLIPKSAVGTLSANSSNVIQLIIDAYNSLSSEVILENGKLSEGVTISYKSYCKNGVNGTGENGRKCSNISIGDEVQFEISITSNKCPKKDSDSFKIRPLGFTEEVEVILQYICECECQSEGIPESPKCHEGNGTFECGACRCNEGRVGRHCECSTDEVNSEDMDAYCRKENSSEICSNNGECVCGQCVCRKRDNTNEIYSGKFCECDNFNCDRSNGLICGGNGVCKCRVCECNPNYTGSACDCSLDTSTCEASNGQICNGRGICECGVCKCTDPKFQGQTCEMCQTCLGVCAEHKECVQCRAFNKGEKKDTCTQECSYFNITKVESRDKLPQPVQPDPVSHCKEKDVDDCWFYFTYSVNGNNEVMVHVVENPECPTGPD

On to “Ac-NHIPERAGSGSQVPTEPKKLEENEVIPKRISPVEESEDVSNKVSM-NH2 [SDC4_87-131]”, for which the “integrin-αv/SDC4 interaction induced by dECM-PF” value in the series with SDC4/integrin-αv [1] is reported as “significantly reduce”. In series [2] (in vitro vs in vivo PF model), the “expression of integrin-β1” value is listed as “only reduced in the in vitro PF model”. Further, the “expression level of integrin-αv” value in series [2] (in vitro, 100 nM, 48 h) is on record as “significantly reduced the expression level of integrin-αv”. Also, the FAK/AKT phosphorylation entry in series [2] (in vitro, 100 nM) was “inhibit FAK/AKT phosphorylation activation in both in vitro and in vivo experiments”. In addition, in series [2] (in vitro, SDC4_87-131 100 nM, C8 20 nM, Anti-SDC4(93-121) 100 ng/mL), the “phosphorylation level of PKCα and nuclear content of NF-κB (p65)” value is on record as “could downregulate”. For the same substance, the “affinity (in words)” value on integrin-αvβ1 is recorded as “nM level”. The pan-integrins activation entry in the series with pan-integrins is listed as “could inhibit pan-integrins activation”. Moreover, the “interaction of integrin-αv and SDC4 in BLM lung tissue” value with SDC4/integrin-αv [3] is “could reduce the interaction of integrin-αv and SDC4”. Moreover, the toxicity to fibroblast entry in the series on fibroblast was “no significant toxicity to fibroblast”. Besides, the “integrin-β1/SDC4 interaction induced by dECM-PF” value in the series on SDC4/integrin-β1 is listed as “significantly reduce”. Further, the dECM-PF-induced fibroblast activation result in the series with NIH3T3 cells (100 nM, 48 h) was “significantly inhibit dECM-PF-induced fibroblast activation”. For the same substance, in the series on NIH3T3 cells (SDC4_87-131 100 nM vs Anti-SDC4(93-121) 100 ng/mL), the “dECM-PF-induced fibroblast activation and TGF-β1 synthesis” value is “inhibited dECM-PF-induced fibroblast activation and TGF-β1 synthesis”.
